The target of this experiment is T1, IRAK-4 (Homo sapiens, UniProt Q9NWZ3).
T1 sequence (Q9NWZ3 1-460): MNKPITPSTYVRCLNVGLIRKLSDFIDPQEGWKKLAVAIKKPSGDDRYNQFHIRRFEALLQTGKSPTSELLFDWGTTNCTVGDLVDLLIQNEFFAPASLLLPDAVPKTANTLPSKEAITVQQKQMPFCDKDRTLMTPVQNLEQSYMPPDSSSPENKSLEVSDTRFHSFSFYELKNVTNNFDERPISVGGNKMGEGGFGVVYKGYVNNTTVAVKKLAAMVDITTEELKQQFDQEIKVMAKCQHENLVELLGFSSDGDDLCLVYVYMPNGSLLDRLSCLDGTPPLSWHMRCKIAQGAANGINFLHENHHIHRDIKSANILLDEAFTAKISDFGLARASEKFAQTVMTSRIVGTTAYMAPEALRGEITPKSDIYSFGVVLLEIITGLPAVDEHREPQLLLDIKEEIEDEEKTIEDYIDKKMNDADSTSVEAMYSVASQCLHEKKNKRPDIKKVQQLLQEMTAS
The experiment can be described thus: IRAK-4 ELISA, PBMC degradation. Format: cell-based. Also on record: endogenous in cells; host or cells: PBMC. The settings on record: treated overnight. The essentials: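 Steps: seed cells (OCI-Ly10 1×10^6/ml; PBMC 2×10^6/ml); add compound the same day; incubate overnight; lyse; quantify IRAK-4 by matched-pair ELISA.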
In general terms: An ELISA detects its analyte on a solid surface through an enzyme-linked reagent.

Each structure is given as a SMILES string.

The DC50 is the concentration at which degradation of the target reaches its halfway point. The term Dmax denotes the greatest extent of degradation seen.

On to `O=C1CCC(N2C(=O)c3ccc(N4CC(N(CC(F)(F)F)C5CCC(n6cc7cc(NC(=O)c8cnn9cccnc89)c(OCC8CC8)cc7n6)CC5)C4)cc3C2=O)C(=O)N1` (stereo not drawn) [Example 327], for which the DC50 is no less than 10 nM, the greatest degradation seen (Dmax) is 80 to 90% and the “PBMC DC90” value is given as “D (D represents a DC90 value ≥50 nM)”.
In the case of `CC(C)Oc1cc2c(cc1NC(=O)c1cnn3cccnc13)CN(C1CCC(N(C)C3CN(c4ccc(C(=O)NC5CCC(=O)NC5=O)c(F)c4)C3)CC1)C2=O` (stereo not drawn) [Example 328], the DC50 is less than 1 nM, the maximal degradation (Dmax) is no less than 90% and the “PBMC DC90” value was “A (A represents a DC90 value <10.0 nM)”.
Turning to `CC(C)Oc1cc2c(cc1NC(=O)c1cnn3cccnc13)CN(C1CCC(N(C)C3CN(c4ccc5c(c4)CN(C4CCC(=O)NC4=O)C5=O)C3)CC1)C2=O` (stereo not drawn) [Example 329], the “PBMC DC90” value is “A (A represents a DC90 value <10.0 nM)” and the “PBMC Dmax” value is “A (A represents a Dmax value ≥90)”.
As to `CC(C)Oc1cc2c(cc1NC(=O)c1cnn3cccnc13)CN([C@H]1CC[C@H](N(C)C3CN(c4ccc5c(c4)CN(C4CCC(=O)NC4=O)C5=O)C3)CC1)C2=O` (stereo partly drawn) [Example 329], the DC50 was less than 1 nM.
On to `CCN(C1CCC(N2Cc3cc(NC(=O)c4cnn5cccnc45)c(OC(C)C)cc3C2=O)CC1)C1CN(c2ccc3c(c2)CN(C2CCC(=O)NC2=O)C3=O)C1` (stereo not drawn) [Example 330], for which the 50% degradation concentration (DC50) was less than 1 nM, the maximal degradation (Dmax) was no less than 90% and the “PBMC DC90” value is “A (A represents a DC90 value <10.0 nM)”.
As for `CC(C)Oc1cc2c(cc1NC(=O)c1cnn3cccnc13)CN(C1CCC(N(CC(F)F)C3CN(c4ccc5c(c4)C(=O)N(C4CCC(=O)NC4=O)C5=O)C3)CC1)C2=O` (stereo not drawn) [Example 331], the 50% degradation concentration (DC50) is 1 to 5 nM; the Dmax is no less than 90%; the “PBMC DC90” value was “B (B represents a DC90 value ≥10.0 nM and <25.0 nM)”.
On to `CC(C)Oc1cc2c(cc1NC(=O)c1cnn3cccnc13)CN(C1CCC(N(CC(F)(F)F)C3CN(c4ccc5c(c4)C(=O)N(C4CCC(=O)NC4=O)C5=O)C3)CC1)C2=O` (stereo not drawn) [Example 332], for which the DC50 was no less than 10 nM, the Dmax is no less than 90% and the “PBMC DC90” value is “D (D represents a DC90 value ≥50 nM)”.
With `CN(C1CCC(N2Cc3cc(NC(=O)c4cnn5cccnc45)c(OC4CC4)cc3C2=O)CC1)C1CN(c2ccc3c(c2)C(=O)N(C2CCC(=O)NC2=O)C3=O)C1` (stereo not drawn) [Example 341], the 50% degradation concentration (DC50) is less than 1 nM, the Dmax is no less than 90% and the “PBMC DC90” value is listed as “A (A represents a DC90 value <10.0 nM)”.
In the same order, the values of `CN(C1CCC(N2Cc3cc(NC(=O)c4cnn5cccnc45)c(OC4CC4)cc3C2=O)CC1)C1CCN(c2ccc3c(c2)C(=O)N(C2CCC(=O)NC2=O)C3=O)CC1` (stereo not drawn) [Example 342] are less than 1 nM, no less than 90% and “A (A represents a DC90 value <10.0 nM)”.
Turning to `CN(C1CN(c2ccc3c(c2)C(=O)N(C2CCC(=O)NC2=O)C3=O)C1)[C@H]1CC[C@H](n2cc3cc(NC(=O)c4cnn5cccnc45)c(C4CC4)cc3n2)CC1` (stereo partly drawn) [Example 343], the DC50 was less than 1 nM, the greatest degradation seen (Dmax) was no less than 90% and the “PBMC DC90” value was “A (A represents a DC90 value <10.0 nM)”.
In the same order, the values of `CN(C1CCN(c2ccc3c(c2)C(=O)N(C2CCC(=O)NC2=O)C3=O)CC1)[C@H]1CC[C@H](n2cc3cc(NC(=O)c4cnn5cccnc45)c(C4CC4)cc3n2)CC1` (stereo partly drawn) [Example 344] are less than 1 nM, no less than 90% and “A (A represents a DC90 value <10.0 nM)”.
In the same order, the values of `CN(C1CCC(N2Cc3cc(NC(=O)c4cnn5cccnc45)c(OCC4CC4)cc3C2=O)CC1)C1CN(c2ccc3c(c2)C(=O)N(C2CCC(=O)NC2=O)C3=O)C1` (stereo not drawn) [Example 345] are less than 1 nM, no less than 90% and “A (A represents a DC90 value <10.0 nM)”.
As to `CC(C)Oc1cc2nn([C@H]3CC[C@H](N(C)CC4(F)CN(c5ccc6c(c5)C(=O)N(C5CCC(=O)NC5=O)C6=O)C4)CC3)cc2cc1NC(=O)c1cnn2cccnc12` (stereo partly drawn) [Example 347], the 50% degradation concentration (DC50) was 1 to 5 nM; the Dmax lay within 80 to 90%; the “PBMC DC90” value is “B (B represents a DC90 value ≥10.0 nM and <25.0 nM)”.
Turning to `CC(C)Oc1cc2nn([C@H]3CC[C@H](NCC4(F)CN(c5ccc6c(c5)C(=O)N(C5CCC(=O)NC5=O)C6=O)C4)CC3)cc2cc1NC(=O)c1cnn2cccnc12` (stereo partly drawn) [Example 348], the DC50 is less than 1 nM, the Dmax was no less than 90% and the “PBMC DC90” value is listed as “A (A represents a DC90 value <10.0 nM)”.
`CN(CC1CCN(c2ccc3c(c2)C(=O)N(C2CCC(=O)NC2=O)C3=O)CC1)[C@H]1CC[C@H](n2cc3cc(NC(=O)c4cnn5cccnc45)c(OCC4CC4)cc3n2)CC1` (stereo partly drawn) [Example 349]: the 50% degradation concentration (DC50) was less than 1 nM, the greatest degradation seen (Dmax) was 80 to 90% and the “PBMC DC90” value was “A (A represents a DC90 value <10.0 nM)”.
For the compound `CN(CC1(F)CN(c2ccc3c(c2)C(=O)N(C2CCC(=O)NC2=O)C3=O)C1)[C@H]1CC[C@H](n2cc3cc(NC(=O)c4cnn5cccnc45)c(OCC4CC4)cc3n2)CC1` (stereo partly drawn) [Example 350], the DC50 lay in the range of 1 to 5 nM; the Dmax lay within 70 to 80%; the “PBMC DC90” value is “B (B represents a DC90 value ≥10.0 nM and <25.0 nM)”.
As for `O=C1CCC(N2C(=O)c3ccc(N4CC(F)(CN[C@H]5CC[C@H](n6cc7cc(NC(=O)c8cnn9cccnc89)c(OCC8CC8)cc7n6)CC5)C4)cc3C2=O)C(=O)N1` (stereo partly drawn) [Example 351], the DC50 was less than 1 nM, the greatest degradation seen (Dmax) lay within 80 to 90% and the “PBMC DC90” value is “A (A represents a DC90 value <10.0 nM)”.
Turning to `CN(CC1(F)CCN(c2ccc3c(c2)C(=O)N(C2CCC(=O)NC2=O)C3=O)CC1)[C@H]1CC[C@H](n2cc3cc(NC(=O)c4cnn5cccnc45)c(OCC4CC4)cc3n2)CC1` (stereo partly drawn) [Example 352], the DC50 fell in the range of 1 to 5 nM; the Dmax was in the range of 80 to 90%; the “PBMC DC90” value was “B (B represents a DC90 value ≥10.0 nM and <25.0 nM)”.
Consider `CN(C1CCC(n2cc3cc(NC(=O)c4cnn5cccnc45)c(OCC4CC4)cc3n2)CC1)C1CCN(c2ccc3c(c2)C(=O)N(C2CCC(=O)NC2=O)C3)CC1` (stereo not drawn) [Example 354], for which the half-maximal degradation concentration (DC50) was less than 1 nM, the Dmax was in the range of 70 to 80% and the “PBMC DC90” value is “D (D represents a DC90 value ≥50 nM)”.
The like results for `CN(C1CCC(n2cc3cc(NC(=O)c4cnn5cccnc45)c(OCC4CC4)cc3n2)CC1)C1CN(c2ccc3c(c2)C(=O)N(C2CCC(=O)NC2=O)C3)C1` (stereo not drawn) [Example 355] were, in that order, 1 to 5 nM, 80 to 90% and “D (D represents a DC90 value ≥50 nM)”.
The like results for `CN(CC1(C)CCN(c2ccc3c(c2)C(=O)N(C2CCC(=O)NC2=O)C3=O)CC1)C1CCC(n2cc3cc(NC(=O)c4cnn5cccnc45)c(OCC4CC4)cc3n2)CC1` (stereo not drawn) [Example 356] were, in that order, 1 to 5 nM, no less than 90% and “A (A represents a DC90 value <10.0 nM)”.
Consider `CCN(C1CCN(c2ccc3c(c2)C(=O)N([C@@H]2CCC(=O)NC2=O)C3=O)CC1)[C@H]1C[C@H](n2cc3cc(NC(=O)c4cnn5cccnc45)c(OC(C)C)cc3n2)C1` [Example 377, N-(2-((1r,3r)-3-((1-(2-(2,6-dioxopiperidin-3-yl)-1,3-dioxoisoindolin-5-yl)piperidin-4-yl)(ethyl)amino)cyclobutyl)-6-isopropoxy-2H-indazol-5-yl)pyrazolo[1,5-a]pyrimidine-3-carboxamide], for which the 50% degradation concentration (DC50) fell in the range of 1 to 5 nM; the “PBMC DC90” value was “B (B represents a DC90 value ≥10.0 nM and <25.0 nM)”; the “PBMC Dmax” value is reported as “A (A represents a Dmax value ≥90)”.
Regarding `Cn1c(=O)n(C2CCC(=O)NC2=O)c2cccc(N3CC(CN4CCC(n5cc6cc(NC(=O)c7cnn8cccnc78)c(C7CC7)cc6n5)CC4)C3)c21` (stereo not drawn) [Example 383], the DC50 is less than 1 nM, the Dmax is no less than 90% and the “PBMC DC90” value is reported as “A (A represents a DC90 value <10.0 nM)”.
In the same order, the values of `CC(C)Oc1cc2c(cc1NC(=O)c1cnn3cccnc13)CN(C1CCN(CC3(F)CN(c4cccc5c4n(C)c(=O)n5C4CCC(=O)NC4=O)C3)CC1)C2=O` (stereo not drawn) [Example 385] are less than 1 nM, no less than 90% and “A (A represents a DC90 value <10.0 nM)”.
In the same order, the values of `CC(C)Oc1cc2nn(C3CCN(CC4(F)CN(c5cccc6c5n(C)c(=O)n6C5CCC(=O)NC5=O)C4)CC3)cc2cc1NC(=O)c1cnn2cccnc12` (stereo not drawn) [Example 386] are less than 1 nM, no less than 90% and “A (A represents a DC90 value <10.0 nM)”.
For the compound `Cn1c(=O)n(C2CCC(=O)NC2=O)c2cccc(N3CC(F)(CN4CCC(n5cc6cc(NC(=O)c7cnn8cccnc78)c(OCC7CC7)cc6n5)CC4)C3)c21` (stereo not drawn) [Example 387], the half-maximal degradation concentration (DC50) was less than 1 nM, the greatest degradation seen (Dmax) was no less than 90% and the “PBMC DC90” value was “A (A represents a DC90 value <10.0 nM)”.
In the same order, the values of `CCN(C1CN(c2cccc3c2n(C)c(=O)n3C2CCC(=O)NC2=O)C1)[C@H]1CC[C@H](n2cc3cc(NC(=O)c4cnn5cccnc45)c(OC(C)C)cc3n2)CC1` (stereo partly drawn) [Example 388] are less than 1 nM, no less than 90% and “A (A represents a DC90 value <10.0 nM)”.

The values are drawn from patent US20230099344A1, “COMPOUNDS AND METHODS FOR THE TARGETED DEGRADATION OF IRAK-4” (Arvinas Operations, Inc., priority 2021, published 2023).
